# Experimental data: ChEMBL document CHEMBL5291721, “A preclinical secondary pharmacology resource illuminates target-adverse drug reaction associations of marketed drugs” (Nat Commun, 2023)
# Tests used:
# Androgen receptor = target: T1, Androgen receptor (Homo sapiens, UniProt P10275)
# T1 sequence (P10275 whole entry): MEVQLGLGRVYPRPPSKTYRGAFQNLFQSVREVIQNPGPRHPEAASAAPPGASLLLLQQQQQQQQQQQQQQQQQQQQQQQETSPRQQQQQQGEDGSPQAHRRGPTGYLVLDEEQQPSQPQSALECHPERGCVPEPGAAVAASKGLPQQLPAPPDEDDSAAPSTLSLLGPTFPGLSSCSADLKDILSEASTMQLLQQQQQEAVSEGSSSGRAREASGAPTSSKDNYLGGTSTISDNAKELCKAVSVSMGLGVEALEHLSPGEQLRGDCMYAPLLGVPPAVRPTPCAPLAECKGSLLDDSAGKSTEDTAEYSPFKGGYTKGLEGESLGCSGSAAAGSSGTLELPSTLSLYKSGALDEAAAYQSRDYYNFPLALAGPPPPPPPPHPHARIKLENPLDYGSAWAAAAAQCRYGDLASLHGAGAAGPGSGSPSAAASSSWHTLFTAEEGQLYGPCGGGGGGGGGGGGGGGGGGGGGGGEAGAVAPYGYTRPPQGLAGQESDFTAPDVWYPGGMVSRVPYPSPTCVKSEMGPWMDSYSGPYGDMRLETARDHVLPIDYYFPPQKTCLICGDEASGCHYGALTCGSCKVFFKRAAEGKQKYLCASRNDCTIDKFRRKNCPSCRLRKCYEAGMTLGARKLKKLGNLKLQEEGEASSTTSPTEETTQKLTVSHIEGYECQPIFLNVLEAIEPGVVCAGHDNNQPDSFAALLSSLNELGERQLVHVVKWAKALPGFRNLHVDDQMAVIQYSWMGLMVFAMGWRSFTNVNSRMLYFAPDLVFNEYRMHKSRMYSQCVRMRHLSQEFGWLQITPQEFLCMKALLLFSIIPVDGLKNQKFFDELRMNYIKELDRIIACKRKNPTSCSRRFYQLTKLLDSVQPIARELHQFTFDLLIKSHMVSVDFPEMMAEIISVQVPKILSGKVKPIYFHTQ
# [1] = target: T2, Muscarinic acetylcholine receptor M1 (Homo sapiens, UniProt P11229); format: functional, cell-based
# T2 sequence (P11229 whole entry): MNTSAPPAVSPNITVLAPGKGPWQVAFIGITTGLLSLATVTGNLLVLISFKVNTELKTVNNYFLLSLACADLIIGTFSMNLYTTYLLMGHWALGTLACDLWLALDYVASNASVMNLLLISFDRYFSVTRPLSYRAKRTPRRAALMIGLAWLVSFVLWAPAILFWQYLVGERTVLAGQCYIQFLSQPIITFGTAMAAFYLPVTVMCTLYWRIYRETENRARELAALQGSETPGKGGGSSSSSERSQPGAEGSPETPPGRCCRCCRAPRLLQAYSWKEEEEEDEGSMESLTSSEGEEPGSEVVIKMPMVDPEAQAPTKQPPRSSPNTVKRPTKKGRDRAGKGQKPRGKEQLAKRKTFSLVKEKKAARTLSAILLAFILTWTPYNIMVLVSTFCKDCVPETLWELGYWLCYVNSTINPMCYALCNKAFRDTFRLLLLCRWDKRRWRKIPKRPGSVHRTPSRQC
# Melanocortin receptor 3 = Melanocortin receptor 3 (Homo sapiens, UniProt P41968)
# Chain of Melanocortin receptor 3 (P41968 whole entry): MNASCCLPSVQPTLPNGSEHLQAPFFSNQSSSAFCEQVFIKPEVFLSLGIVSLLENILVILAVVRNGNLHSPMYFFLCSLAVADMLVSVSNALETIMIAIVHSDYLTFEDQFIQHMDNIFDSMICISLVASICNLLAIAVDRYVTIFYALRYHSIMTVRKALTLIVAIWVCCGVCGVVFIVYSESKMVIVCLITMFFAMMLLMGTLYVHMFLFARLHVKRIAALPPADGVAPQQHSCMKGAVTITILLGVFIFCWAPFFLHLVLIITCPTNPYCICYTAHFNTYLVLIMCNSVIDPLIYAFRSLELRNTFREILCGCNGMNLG
# [2] = target: Neuronal acetylcholine receptor subunit alpha-4 (Homo sapiens, UniProt P43681)
# Chain of Neuronal acetylcholine receptor subunit alpha-4 (P43681 whole entry): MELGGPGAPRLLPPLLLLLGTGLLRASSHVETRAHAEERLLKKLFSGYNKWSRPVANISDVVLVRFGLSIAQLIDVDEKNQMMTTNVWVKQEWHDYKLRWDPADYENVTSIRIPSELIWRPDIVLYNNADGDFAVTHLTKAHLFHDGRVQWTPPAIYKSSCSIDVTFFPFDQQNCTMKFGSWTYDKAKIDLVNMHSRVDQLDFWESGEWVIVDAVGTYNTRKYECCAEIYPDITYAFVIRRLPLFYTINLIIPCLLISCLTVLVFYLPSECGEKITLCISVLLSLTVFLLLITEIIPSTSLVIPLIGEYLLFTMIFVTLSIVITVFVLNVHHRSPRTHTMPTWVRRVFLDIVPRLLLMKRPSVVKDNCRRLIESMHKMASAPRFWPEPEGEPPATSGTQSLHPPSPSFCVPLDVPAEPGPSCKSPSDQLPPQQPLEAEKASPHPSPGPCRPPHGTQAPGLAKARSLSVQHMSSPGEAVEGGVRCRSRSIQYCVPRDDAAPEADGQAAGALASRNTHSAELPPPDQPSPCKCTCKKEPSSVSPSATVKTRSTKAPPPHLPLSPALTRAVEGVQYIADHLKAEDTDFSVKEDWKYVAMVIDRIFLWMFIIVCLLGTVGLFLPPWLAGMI
# [3] = target: T3, 5-hydroxytryptamine receptor 2C (Homo sapiens, UniProt P28335)
# T3 sequence (P28335 whole entry): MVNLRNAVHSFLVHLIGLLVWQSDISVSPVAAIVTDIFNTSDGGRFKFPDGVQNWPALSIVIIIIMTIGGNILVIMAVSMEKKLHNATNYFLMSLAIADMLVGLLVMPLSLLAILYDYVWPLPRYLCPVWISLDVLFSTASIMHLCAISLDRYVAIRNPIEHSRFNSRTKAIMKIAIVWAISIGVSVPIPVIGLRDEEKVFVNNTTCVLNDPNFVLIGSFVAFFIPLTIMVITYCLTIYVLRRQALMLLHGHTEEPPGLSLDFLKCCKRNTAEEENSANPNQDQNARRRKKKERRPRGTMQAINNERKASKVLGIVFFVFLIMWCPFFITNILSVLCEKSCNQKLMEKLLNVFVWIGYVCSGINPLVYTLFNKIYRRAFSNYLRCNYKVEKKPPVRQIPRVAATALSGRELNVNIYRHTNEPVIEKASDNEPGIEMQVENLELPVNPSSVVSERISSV
# [4] = target: Sodium-dependent dopamine transporter (Homo sapiens, UniProt Q01959)
# Chain of Sodium-dependent dopamine transporter (Q01959 whole entry): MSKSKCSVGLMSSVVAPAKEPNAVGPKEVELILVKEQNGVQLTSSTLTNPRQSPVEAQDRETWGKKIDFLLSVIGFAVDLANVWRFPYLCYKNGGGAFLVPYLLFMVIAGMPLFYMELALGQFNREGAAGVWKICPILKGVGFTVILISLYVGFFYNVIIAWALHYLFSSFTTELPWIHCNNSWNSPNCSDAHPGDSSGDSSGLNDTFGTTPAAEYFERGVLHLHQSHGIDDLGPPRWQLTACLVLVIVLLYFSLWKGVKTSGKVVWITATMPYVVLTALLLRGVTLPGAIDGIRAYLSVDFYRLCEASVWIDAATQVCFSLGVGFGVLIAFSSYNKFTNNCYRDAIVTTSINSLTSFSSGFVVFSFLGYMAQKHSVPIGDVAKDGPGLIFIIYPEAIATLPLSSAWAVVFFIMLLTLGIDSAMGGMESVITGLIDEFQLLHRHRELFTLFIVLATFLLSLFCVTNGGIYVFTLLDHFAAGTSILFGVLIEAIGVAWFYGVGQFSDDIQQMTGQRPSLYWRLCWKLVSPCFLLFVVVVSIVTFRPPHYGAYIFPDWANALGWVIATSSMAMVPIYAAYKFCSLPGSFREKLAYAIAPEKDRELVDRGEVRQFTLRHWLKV
# [5] = target: Delta-type opioid receptor (Homo sapiens, UniProt P41143)
# Chain of Delta-type opioid receptor (P41143 whole entry): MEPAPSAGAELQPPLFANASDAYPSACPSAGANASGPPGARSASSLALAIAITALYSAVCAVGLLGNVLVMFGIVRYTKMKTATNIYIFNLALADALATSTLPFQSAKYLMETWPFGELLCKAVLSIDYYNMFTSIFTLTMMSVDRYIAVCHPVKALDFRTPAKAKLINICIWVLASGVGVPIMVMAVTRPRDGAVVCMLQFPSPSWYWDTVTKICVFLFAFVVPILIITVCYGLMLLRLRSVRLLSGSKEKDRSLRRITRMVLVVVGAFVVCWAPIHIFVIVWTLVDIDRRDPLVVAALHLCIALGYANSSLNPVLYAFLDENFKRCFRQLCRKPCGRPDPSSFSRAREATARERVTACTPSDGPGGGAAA
# [6] = target: Gamma-aminobutyric acid receptor subunit alpha-1 (Rattus norvegicus, UniProt P62813); format: functional
# Chain of Gamma-aminobutyric acid receptor subunit alpha-1 (P62813 whole entry): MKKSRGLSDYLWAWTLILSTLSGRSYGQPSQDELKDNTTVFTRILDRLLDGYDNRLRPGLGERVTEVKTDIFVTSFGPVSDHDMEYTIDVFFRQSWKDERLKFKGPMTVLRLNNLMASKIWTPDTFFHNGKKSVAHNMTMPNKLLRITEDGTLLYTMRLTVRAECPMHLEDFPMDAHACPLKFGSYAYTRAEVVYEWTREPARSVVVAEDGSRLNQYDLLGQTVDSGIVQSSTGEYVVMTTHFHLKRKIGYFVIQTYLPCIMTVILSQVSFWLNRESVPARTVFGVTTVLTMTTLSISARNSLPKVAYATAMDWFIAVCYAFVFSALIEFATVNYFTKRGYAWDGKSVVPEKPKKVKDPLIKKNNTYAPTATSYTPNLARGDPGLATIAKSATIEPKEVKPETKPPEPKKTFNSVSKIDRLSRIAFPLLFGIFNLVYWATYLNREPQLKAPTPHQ
# [7] = target: T4, Prostaglandin G/H synthase 1 (Rattus norvegicus, UniProt Q63921); format: functional
# T4 sequence (Q63921 whole entry): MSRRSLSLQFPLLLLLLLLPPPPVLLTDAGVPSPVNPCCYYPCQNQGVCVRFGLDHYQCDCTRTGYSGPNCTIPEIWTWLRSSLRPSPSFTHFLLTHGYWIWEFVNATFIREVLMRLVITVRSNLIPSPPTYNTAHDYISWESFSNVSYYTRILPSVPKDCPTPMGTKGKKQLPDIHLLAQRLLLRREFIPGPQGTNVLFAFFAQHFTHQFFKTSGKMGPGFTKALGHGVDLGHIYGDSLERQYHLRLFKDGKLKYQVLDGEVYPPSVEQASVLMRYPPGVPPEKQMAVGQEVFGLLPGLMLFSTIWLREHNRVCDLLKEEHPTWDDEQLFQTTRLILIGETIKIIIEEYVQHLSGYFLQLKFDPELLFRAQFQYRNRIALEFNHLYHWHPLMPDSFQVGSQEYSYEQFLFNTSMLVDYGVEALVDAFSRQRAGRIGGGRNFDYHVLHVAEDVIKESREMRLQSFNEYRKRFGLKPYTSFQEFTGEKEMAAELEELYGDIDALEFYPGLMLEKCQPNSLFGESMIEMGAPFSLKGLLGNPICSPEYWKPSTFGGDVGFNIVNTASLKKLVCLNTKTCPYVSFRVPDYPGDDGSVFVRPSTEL
# Further: assay procedure not described here.
Structure (SMILES),AC50 (Androgen receptor) [µM],AC50 [1] [µM],also measured
OC(CCCN1CCCCC1)(c1ccccc1)c1ccccc1 [DIPHENIDOL],> 30,,
CCCCCCCC(=O)N[C@H](CN1CCCC1)[C@H](O)c1ccc2c(c1)OCCO2,> 30,,
CCCCCCCCCCCCCCCCCC(=O)NCCCC[C@H](NC(=O)CC[C@@H](NC(=O)[C@H](C)NC(=O)[C@@H](C)O[C@H]1[C@H](O)[C@@H](CO)OC(O)[C@@H]1NC(C)=O)C(N)=O)C(=O)O (some centres not stated) [ROMURTIDE],5.69,> 30,
c1cc(CN2CCCNCCNCCCNCC2)ccc1CN1CCCNCCNCCCNCC1 [PLERIXAFOR],> 30,> 30,
O=C(Nc1nc(-c2cc(Cl)cs2)c(N2CCN(C3CCCCC3)CC2)s1)c1cnc(N2CCC(C(=O)O)CC2)c(Cl)c1 [AVATROMBOPAG],> 30,,AC50 (Melanocortin receptor 3): > 10 µM; AC50 [2]: > 10 µM; AC50 [3]: > 10 µM; AC50 [4]: > 10 µM; AC50 [5]: > 10 µM; AC50 [6]: > 10 µM
COC(=O)C1=C(C)NC(C)=C(C(=O)O[C@H]2CCN(Cc3ccccc3)C2)[C@H]1c1cccc([N+](=O)[O-])c1 [BARNIDIPINE],> 30,> 30,
O=C(NC(Cc1cc(=O)[nH]c2ccccc12)C(=O)O)c1ccc(Cl)cc1 (configuration not stated) [REBAMIPIDE],,> 30,
C1CNCCN1 [PIPERAZINE],,> 30,
Cc1onc(-c2c(Cl)cccc2Cl)c1C(=O)N[C@@H]1C(=O)N2[C@@H]1SC(C)(C)[C@@H]2C(=O)O [DICLOXACILLIN],> 30,> 30,
CCC(=O)O[C@@H]1CC(=O)O[C@H](C)C/C=C/C=C/[C@H](OC(C)=O)[C@H](C)C[C@H](CC=O)[C@H](O[C@@H]2O[C@H](C)[C@@H](O[C@H]3C[C@@](C)(OC(C)=O)[C@@H](OC(=O)CC)[C@H](C)O3)[C@H](N(C)C)[C@H]2O)[C@H]1OC [MIOCAMYCIN],> 30,,
N[C@@H](Cc1c[nH]c2ccc(O)cc12)C(=O)O [OXITRIPTAN],,> 30,
CNC(=O)C[C@@H](N)C(=O)N[C@@H](C(=O)N[C@@H]1C(=O)N2[C@@H]1SC(C)(C)[C@@H]2C(=O)O)c1ccc(O)cc1 [ASPOXICILLIN],,> 30,
Nc1ncnc(Nc2ccc(Cl)cc2)n1 [CHLORAZANIL],,> 30,
C[C@@H]1C[C@H]2[C@@H]3CCC4=CC(=O)C=C[C@]4(C)C3=CC[C@]2(C)[C@H]1C(=O)CN1CCN(c2cc(N3CCCC3)nc(N3CCCC3)n2)CC1 [TIRILAZAD],6.61,,
CCSc1ccc2c(c1)N(CCCN1CCN(C)CC1)c1ccccc1S2 [THIETHYLPERAZINE],,29.1,AC50 [7]: > 30 µM; AC50 (Melanocortin receptor 3): 18 µM; AC50 [2]: > 3 µM; AC50 [4]: 15 µM
COc1cc([C@@H]2c3cc4c(cc3[C@@H](O[C@@H]3O[C@@H]5CO[C@@H](c6cccs6)O[C@H]5[C@H](O)[C@H]3O)[C@H]3COC(=O)[C@H]23)OCO4)cc(OC)c1O [TENIPOSIDE],,> 30,
CCN(CC)CCOC(=O)C(Cc1cccc2ccccc12)CC1CCCO1 (configuration not stated) [NAFRONYL],,> 30,
CO[C@H]1/C=C/O[C@@]2(C)Oc3c(C)c(O)c4c(O)c(cc(O)c4c3C2=O)NC(=O)/C(C)=C\C=C\[C@H](C)[C@H](O)[C@@H](C)[C@@H](O)[C@@H](C)[C@H](OC(C)=O)[C@@H]1C [RIFAMYCIN],,11.6,
